A short description of the assay: Antiinflammatory activity in rat Polymorphonuclear leukocytes assessed as inhibition of platelet-activating factor-induced beta-glucuronidase release at 10 uM. It counts as functional.
Usually inhibition stands for the percentage by which the read-out fell short of the control. On to `C[C@@H]1C(=O)O[C@H]2[C@H](O)[C@@]34[C@H]5C[C@@H](C(C)(C)C)[C@]36[C@@H](OC(=O)[C@@H]6O)O[C@@]4(C(=O)O5)[C@@]12O` [GINKOLIDE B], for which the inhibition at 10 µM stood at 83.5%.
As for `C=CC[C@]1(O)C(=O)C=C2O[C@H](C(C)(C)O)C[C@@]23[C@@H]2C(=O)[C@@](O)(CC=C)[C@@H](C4=C2OC(C)(C)[C@H](O)C4)[C@H]31` [ILLICIDIONE A], the figure is 38.2%.
Take `C=CCC1=C[C@]2(O)C[C@H](C(C)(C)O)OC2=C(CC2=C3O[C@@H](C(C)(C)O)C[C@@]3(O)C=C(CC=C)C2=O)C1=O` [ILLICIDIONE B]: the inhibition at 10 µM is 18.6%.
Under `C=CC[C@H]1C[C@]2(O)C[C@H](C(C)(C)O)OC2=C(CC2=C3O[C@@H](C(C)(C)O)C[C@@]3(O)C[C@H](CC=C)C2=O)C1=O` [ILLICIDIONE C] stands 25.3%.

Source of the values: ChEMBL document CHEMBL1782033, “Dimeric prenylated C6-C3 compounds from the stem bark of Illicium oligandrum” (2011).
